inhibition, EC50 and Emax data for nine compounds are collected here from patent US10285982B2, “3-(1H-pyrrolo[2,3-B]pyridin-2-yl)-1H-pyrazolo[3,4-C]pyridines and therapeutic uses thereof” (Samumed, LLC, priority 2015, dated 2019).

The subject of assay [1] is Wnt activity (Sp5-Luc reporter, SW480 colon carcinoma cells). Nature of the assay: Wnt activity screening assay, Sp5-Luc reporter gene in SW480 cells. The note with it: Homo sapiens; for inhibition at 10 µM: given where EC50 >10 μM, read-out: percent inhibition at 10 μM; for EC50: overnight incubation. Format: cell-based. The method, boiled down:
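Luminescence read-out (BrightGlo) from stable Sp5-Luc SW480 cells, normalized to DMSO-only wells. Cells were treated overnight at 37° C in 1% FBS medium across a 1:3, 10-point series starting at 10 μM. EC50 from variable-slope four-parameter regression; percent inhibition at 10 μM given where EC50 >10 μM.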
Background: A reporter such as luciferase makes a cellular process visible.

Assay [2] deals with primary human mesenchymal stem cells (hMSCs). Nature of the assay: Chondrogenesis induction in hMSCs (nodule count). Format: cell-based. The note with it: 144 h, hMSC chondrogenesis, 6 days; for EC50: concentration required to induce 50% of TGF-β3 level, read-out: Conc. (nM) of 50% TGF-β3 activity; for Emax: relative to TGF-β3 (10 ng/mL) positive control, read-out: Max. Activity as % TGF-β3 activity. Here is the method: Representative compounds were screened using primary human mesenchymal stem cells (hMSCs) to determine their ability to induce chondrogenesis (process by which cartilage is developed).
Primary human mesenchymal stem cells (hMSCs) were purchased from Lonza (Walkersville, Md.) and expanded in Mesenchymal Stem Cell Growth Media (Lonza). Cells between passage 3 and 6 were used for the experiments.
Each compound was dissolved in DMSO as a 10 mM stock and used to prepare compound source plates. Serial dilution (1:3, 6-point dose-response curves from 2700 nM to 10 nM) and compound transfer was performed using the ECHO 550 (Labcyte, Sunnyvale, Calif.) into 96-well clear bottom assay plates (Greiner Bio-One) with appropriate DMSO backfill for a final DMSO concentration of 0.03%. hMSCs were plated at 20,000 cells/well in 250 μL/well Incomplete Chondrogenic Induction Medium (Lonza; DMEM, dexamethasone, ascorbate, insulin-transferrin-selenium [ITS supplement], gentamycin-amphotericin [GA-1000], sodium pyruvate, proline and L-glutamine). TGF-β3 (10 ng/mL) was used as a positive control for differentiation while negative control wells were treated with 75 nL DMSO for normalization and calculating EC50 values. Cells were incubated at 37° C. and 5% CO2 for 6 days. To image chondrogenic nodules, the cells were fixed using 4% formaldehyde (Electron Microscopy Sciences), and stained with 2 μg/mL Rhodamine B (Sigma-Aldrich) and 20 μM Nile Red (Sigma-Aldrich) [Johnson K., et. al, A Stem Cell-Based Approach to Cartilage Repair, Science, (2012), 336(6082), 717-721]. The nodules imaged (4 images per well at 4× magnification) by excitation at 531 nm and emission at 625 nm and quantified using the CellInsight CX5 (Thermo Scientific). Number of nodules in each well was normalized to the average of 3 DMSO treated wells on the same plate using Excel (Microsoft Inc.). The normalized averages (fold change over DMSO) of 3 replicate wells for each compound concentration were calculated. Due to solubility limitations of some of the compounds, curve fitting was incomplete leading to inaccurate EC50 determinations.
Using TGF-β3 as a positive control, the concentration of representative compounds required to induce 50% levels of chondrogenesis is reported. In addition, the maximum activity of each compound and the respective dose that each compound reached maximum chondrogenesis activity is reported.

Consider `CC(C)Nc1cncc(-c2cc3c(-c4cc5c(-c6cccnc6)ccnc5[nH]4)n[nH]c3cn2)c1` [Compound 96, N-Isopropyl-5-(3-(4-(pyridin-3-yl)-1H-pyrrolo[2,3-b]pyridin-2-yl)-1H-pyrazolo[3,4-c]pyridin-5-yl)pyridin-3-amine], for which, in assay [1], the inhibition – broadly, the percentage by which the read-out fell short of the control – at 10 µM was determined as 30.3% and the EC50 is above 10000 nM. In assay [2], the EC50 stood at 10 nM and the Emax turned out to be 77%.
As for `CC(C)CC(=O)Nc1cncc(-c2cc3c(-c4cc5cccnc5[nH]4)n[nH]c3cn2)c1` [Compound 254, N-(5-(3-(1H-Pyrrolo[2,3-b]pyridin-2-yl)-1H-pyrazolo[3,4-c]pyridin-5-yl)pyridin-3-yl)-3-methylbutanamide], in assay [1], the inhibition at 10 µM turned out to be 12.4% and the EC50 is above 10000 nM. In addition, the Emax in assay [2] was 40%.
For `CN1CCN(c2ccnc3[nH]c(-c4n[nH]c5cnc(-c6cncc(NC(=O)CC7CCNCC7)c6)cc45)cc23)CC1` [Compound 641, N-(5-(3-(4-(4-Methylpiperazin-1-yl)-1H-pyrrolo[2,3-b]pyridin-2-yl)-1H-pyrazolo[3,4-c]pyridin-5-yl)pyridin-3-yl)-2-(piperidin-4-yl)acetamide], in assay [1], the inhibition at 10 µM was 8% and the EC50 was above 10000 nM. Further, in assay [2], the EC50 was found to be 100 nM and the Emax was 341%.
`Fc1cccc(-c2ccnc3[nH]c(-c4n[nH]c5cnc(-c6cncnc6)cc45)cc23)c1` [Compound 27, 3-(4-(3-Fluorophenyl)-1H-pyrrolo[2,3-b]pyridin-2-yl)-5-(pyrimidin-5-yl)-1H-pyrazolo[3,4-c]pyridine]: the EC50 in assay [1] is 507 nM. In addition, the Emax in assay [2] is 41%.
Take `O=C(Nc1cncc(-c2cc3c(-c4cc5cccnc5[nH]4)n[nH]c3cn2)c1)C1CC1` [Compound 272, N-(5-(3-(1H-Pyrrolo[2,3-b]pyridin-2-yl)-1H-pyrazolo[3,4-c]pyridin-5-yl)pyridin-3-yl)cyclopropanecarboxamide]: in assay [1], the inhibition at 10 µM was determined as 19.3% and the EC50 was above 10000 nM. For the same compound, the Emax in assay [2] came to 18%.
Take `CN1CCN(c2ccnc3[nH]c(-c4n[nH]c5cnc(-c6cncc(CNCC7CCCC7)c6)cc45)cc23)CC1` [Compound 249, 1-Cyclopentyl-N-((5-(3-(4-(4-methylpiperazin-1-yl)-1H-pyrrolo[2,3-b]pyridin-2-yl)-1H-pyrazolo[3,4-c]pyridin-5-yl)pyridin-3-yl)methyl)methanamine]: in assay [1], the inhibition at 10 µM was determined as 41.4% and the EC50 is above 10000 nM. In assay [2], the EC50 amounted to 300 nM and the Emax was found to be 150%.
For the compound `O=C(Nc1cncc(-c2cc3c(-c4cc5c(-c6cccnc6)ccnc5[nH]4)n[nH]c3cn2)c1)c1ccccc1` [Compound 95, N-(5-(3-(4-(Pyridin-3-yl)-1H-pyrrolo[2,3-b]pyridin-2-yl)-1H-pyrazolo[3,4-c]pyridin-5-yl)pyridin-3-yl)benzamide], in assay [1], the inhibition at 10 µM was found to be 8.7% and the EC50 was above 10000 nM. Moreover, in assay [2], the EC50 was 10 nM and the Emax stood at 64%.
As to `CCCC(=O)Nc1cncc(-c2cc3c(-c4cc5c(-c6cc(F)cc(NCCN(C)C)c6)ccnc5[nH]4)n[nH]c3cn2)c1` [Compound 465, N-(5-(3-(4-(3-((2-(Dimethylamino)ethyl)amino)-5-fluorophenyl)-1H-pyrrolo [2,3-b]pyridin-2-yl)-1H-pyrazolo[3,4-c]pyridin-5-yl)pyridin-3-yl)butyramide], in assay [1], the inhibition at 10 µM came out at 16.1% and the EC50 is above 10000 nM. In assay [2], the EC50 amounted to 10 nM and the Emax is 162%.
Turning to `c1cncc(-c2ccnc3[nH]c(-c4n[nH]c5cnc(-c6cncnc6)cc45)cc23)c1` [Compound 111, 3-(4-(Pyridin-3-yl)-1H-pyrrolo[2,3-b]pyridin-2-yl)-5-(pyrimidin-5-yl)-1H-pyrazolo[3,4-c]pyridine], in assay [1], the inhibition at 10 µM amounted to 7.8% and the EC50 was above 10000 nM. Further, the Emax in assay [2] was 50%.
